Values of other authors as cited in patent US20210315194A1, “MOSQUITO ATTRACTANT FORMULATIONS AND USES THEREOF” (ACTIVE SCENT AB, priority 2018, published 2021).

System: wild egg-laying Culex mosquitoes
Conditions: traps baited with 1 mg of the compound

CCCCCCCCC=O [nonanal]
attraction to baited traps: attract
